Source: patent US12150998B2, “Bicyclic peptide ligands specific for P-selectin” (BicycleTx Limited, priority 2021, dated 2024)
Read-outs that look alike come from different tables or passages of the source. Starred links: 1 amine or outer side, 2 acyl side, 3 side chain; linkers in the order of their positions; H or OH if unused. Positions of bridges follow the written chain, without caps; N, C: chain ends. Non-standard residues stand in square brackets, D forms with d. Residues, ends and D or L forms follow the SMILES beside them. Chains are numbered I, II in the order given. X2 = O=C(CCCC(=O)NCCOCCOCCOCCOCCOCCOCCOCCOCCOCCOCCOCCOCCOCCOCCOCCOCCOCCOCCOCCOCCOCCOCCOCCn1cc(CCC(=O)[*:2])nn1)NCCOCCOCCOCCOCCOCCOCCOCCOCCOCCOCCOCCOCCOCCOCCOCCOCCOCCOCCOCCOCCOCCOCCOCCn1cc(CCC(=O)[*:1])nn1; X1 = O=C(C[*:1])N1CCN(C(=O)C[*:2])CCN(C(=O)C[*:3])CC1; 1Nal = N[C@@H](Cc1cccc2ccccc12)C(=O)O

How the values were obtained:
[1] = biological target: T1, P-Selectin:PSGL1 interaction (Homo sapiens, UniProt P16109); assay: Receptor ligand inhibition assay (P-Selectin binding to HL-60 cells); format: cell-based; conditions: geomean of n=3; for IC50: 5 nM P-Selectin, HL-60 cells, read-out: IC50; for Inhibition at top concentration: 100−% response at top concentration
T1 construct: host or cells: HL-60 cells (ATCC, CCL-240) supply the PSGL-1 partner endogenously
T1 sequence (P16109 42-771 limits assumed): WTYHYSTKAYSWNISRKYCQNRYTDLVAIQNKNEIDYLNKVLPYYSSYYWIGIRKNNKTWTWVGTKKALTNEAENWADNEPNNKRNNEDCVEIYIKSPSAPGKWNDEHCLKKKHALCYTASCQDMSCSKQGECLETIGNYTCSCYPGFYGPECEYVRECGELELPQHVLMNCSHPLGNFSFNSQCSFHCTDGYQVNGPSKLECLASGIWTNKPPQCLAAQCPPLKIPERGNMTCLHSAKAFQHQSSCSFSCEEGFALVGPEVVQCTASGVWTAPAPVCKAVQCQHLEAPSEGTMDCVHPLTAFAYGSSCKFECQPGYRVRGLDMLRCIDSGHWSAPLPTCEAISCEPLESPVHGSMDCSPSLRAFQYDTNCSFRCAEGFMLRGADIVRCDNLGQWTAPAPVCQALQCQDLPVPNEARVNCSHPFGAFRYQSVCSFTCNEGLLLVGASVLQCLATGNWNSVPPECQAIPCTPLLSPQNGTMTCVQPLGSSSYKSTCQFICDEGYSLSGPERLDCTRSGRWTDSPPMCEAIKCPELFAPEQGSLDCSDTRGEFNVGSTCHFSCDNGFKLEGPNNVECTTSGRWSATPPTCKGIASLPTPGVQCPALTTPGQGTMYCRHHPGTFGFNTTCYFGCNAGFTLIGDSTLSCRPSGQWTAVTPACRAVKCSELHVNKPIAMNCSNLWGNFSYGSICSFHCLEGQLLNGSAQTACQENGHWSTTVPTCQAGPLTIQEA
Procedure: Bicycle test samples, SelG1 (Crizanlizumab) were serially diluted maintaining 0.5% DMSO in assay buffer (25 mM HEPES, 121 mM NaCl, 5.4 mM KCl, 0.8 mM MgCl2, 1.8 mM CaCl2), 6 mM […], 5.5 mM glucose, 1% BSA, pH7.4) and transferred to 384 well clear bottom plates (Corning, 3712) with a final volume of 6 μL. […], of P-Selectin in imaging buffer (25 mM HEPES, 121 mM NaCl, 5.4 mM KCl, 0.8 mM MgCl2, 1.8 mM CaCl2), 6 mM […], 5.5 mM glucose, pH7.4) was added to give a 5 nM final concentration and incubated at room temperature for 15 minutes. HL-60 cells (ATCC, CCL-240) mixed with 1 μg/mL far red labelled wheat germ agglutinin (WGA, ThermoFisher W21404) and 1 μg/mL AlexaFluor 488-streptavidin (Invitrogen S11223) were added to the plate and incubated for 2 hours at room temperature in the absence of light. Staining and antibody binding were quantified by simultaneously scanning the microplates with 488 nm and 640 nm lasers on a mirrorball microplate cytometer, AF488 on FL2 triggering on AF647-WGA on FL4. Data was analysed in Dotmatics, using a four parameter logistic fit to generate IC50 values and % response. Percent inhibition was calculated using 100−% response at top concentration.

human P-Selectin protein = biological target: T2, human P-Selectin protein (Homo sapiens, UniProt P16109); assay: SPR binding assay (Biacore); conditions: recombinant biotinylated human P-Selectin, 25° C.
T2 sequence (P16109 42-830): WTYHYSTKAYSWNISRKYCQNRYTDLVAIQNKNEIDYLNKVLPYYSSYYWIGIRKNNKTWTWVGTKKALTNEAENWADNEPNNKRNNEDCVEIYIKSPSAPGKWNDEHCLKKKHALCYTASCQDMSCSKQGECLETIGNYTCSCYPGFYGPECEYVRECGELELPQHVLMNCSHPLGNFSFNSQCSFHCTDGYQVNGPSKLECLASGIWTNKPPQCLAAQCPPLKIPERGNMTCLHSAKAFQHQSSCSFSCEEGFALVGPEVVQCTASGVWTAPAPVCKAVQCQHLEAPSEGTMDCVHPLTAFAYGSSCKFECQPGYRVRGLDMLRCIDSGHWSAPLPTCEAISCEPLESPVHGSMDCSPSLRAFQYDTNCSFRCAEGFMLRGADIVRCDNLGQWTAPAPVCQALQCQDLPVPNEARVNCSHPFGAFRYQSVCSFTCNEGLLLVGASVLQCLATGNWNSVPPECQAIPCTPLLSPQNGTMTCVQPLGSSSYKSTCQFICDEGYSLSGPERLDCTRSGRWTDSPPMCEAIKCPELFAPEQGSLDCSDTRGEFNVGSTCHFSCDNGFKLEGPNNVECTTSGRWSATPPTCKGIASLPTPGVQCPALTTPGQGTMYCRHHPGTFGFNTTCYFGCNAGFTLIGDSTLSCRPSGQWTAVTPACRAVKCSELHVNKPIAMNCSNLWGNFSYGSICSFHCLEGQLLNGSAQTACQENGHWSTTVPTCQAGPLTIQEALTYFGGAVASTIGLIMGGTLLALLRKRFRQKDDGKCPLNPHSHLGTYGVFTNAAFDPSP
Procedure: Biacore experiments were performed to determine ka (M−1s−1), kd (s−1), KD (nM) values of monomeric peptides binding to human Selectin proteins. Recombinant biotinylated human P-Selectin protein was used. For analysis of binding, either a Biacore 3000 or 5200 instrument was used with a CMS sensor chip (GE Healthcare). For sensor chip surface preparation, streptavidin was immobilized on the chip using standard amine-coupling chemistry at 25° C. with HBS-N (10 mM HEPES, 0.15 M NaCl, pH 7.4) as the running buffer. The carboxymethyl dextran surface was activated with a 12 min injection of a 1:1 ratio of 0.4 M 1-ethyl-3-(3-dim ethyl aminopropyl) carbodiimide hydrochloride (EDC)/0.1 M N-hydroxy succinimide (NHS) at a flow rate of 10 μl/min. For capture of streptavidin, protein was diluted to 0.2 mg/ml in 10 mM sodium acetate (pH 4.5) and captured by injecting 70 μl onto the activated chip surface. Residual activated groups were blocked with a 7 min injection of 1 M ethanolamine (pH 8.5). Biotinylated protein stock was diluted 1:100 in HBS-N and captured on one flow cell at 5 μl/min to a level of 1000-1500 RU. Buffer was changed to PBS/0.05% Tween 20 and a dilution series of the peptides was prepared in this buffer with a final DMSO concentration of 0.5%. The top concentration of the analyte varied from 200 nM to 50 μM; depending on predicted affinity of the interaction. In all cases a titration was performed with either seven 2-fold dilutions or five 3-fold dilutions. The SPR analysis was run at 25° C. with a flow rate of 50-80 μl/min with 60 seconds association and a suitable disassociation period (100-900 seconds). Data were corrected for DMSO excluded volume effects. All data were double-referenced for blank injections and reference surface using standard processing procedures and data processing and kinetic fitting were performed using Scrubber software, version 2.0c (BioLogic Software). Data were fitted using mass transport model allowing for mass transport effects where appropriate.

Row | SMILES | IC50 [1] | Inhibition at top concentration [1] | Kd (human P-Selectin protein; read-out: Affinity KD determined by SPR) | Kd (human P-Selectin protein; Affinity KD determined by SPR)
1 | CC(C)C[C@@H]1NC(=O)[C@H](CO)NC(=O)[C@@H]2CCCN2C(=O)[C@H](C(C)C)NC(=O)[C@H](CC(=O)O)NC(=O)[C@@H]2CSCC(=O)N3CCN(CCN(CC3)C(=O)CSC[C@@H](C(=O)N[C@@H](C)C(N)=O)NC(=O)[C@@H]3CCCN3C1=O)C(=O)CSC[C@H](NC(=O)[C@H](C)N)C(=O)N[C@@H](CC(=O)O)C(=O)N[C@@H](C)C(=O)N[C@@H](CC(=O)O)C(=O)N[C@@H](Cc1cccc3ccccc13)C(=O)N2 [BCY12027, A-(SEQ ID NO: 2)-A] (H-ACDAD[1Nal]CDVPSLPCA-NH2; linker 2-7-14 via X1; N-terminus assumed) | > 36.8 nM | 36% | < 10 nM | –
2 | CC(C)C[C@@H]1NC(=O)[C@H](CO)NC(=O)[C@@H]2CCCN2C(=O)[C@H](C(C)C)NC(=O)[C@H](CC(=O)O)NC(=O)[C@@H]2CSCC(=O)N3CCN(CCN(CC3)C(=O)CSC[C@@H](C(=O)N[C@@H](C)C(=O)N[C@@H](CCCCNC(=O)CCc3cn(CCOCCOCCOCCOCCOCCOCCOCCOCCOCCOCCOCCOCCOCCOCCOCCOCCOCCOCCOCCOCCOCCOCCOCCNC(=O)CCCC(=O)NCCOCCOCCOCCOCCOCCOCCOCCOCCOCCOCCOCCOCCOCCOCCOCCOCCOCCOCCOCCOCCOCCOCCOCCn4cc(CCC(=O)NCCCC[C@H](NC(=O)[C@H](C)NC(=O)[C@@H]5CSCC(=O)N6CCN7CCN(CC6)C(=O)CSC[C@H](NC(=O)[C@H](Cc6cccc8ccccc68)NC(=O)[C@H](CC(=O)O)NC(=O)[C@H](C)NC(=O)[C@H](CC(=O)O)NC(=O)[C@@H](NC(=O)[C@H](C)N)CSCC7=O)C(=O)N[C@@H](CC(=O)O)C(=O)N[C@@H](C(C)C)C(=O)N6CCC[C@H]6C(=O)N[C@@H](CO)C(=O)N[C@@H](CC(C)C)C(=O)N6CCC[C@H]6C(=O)N5)C(N)=O)nn4)nn3)C(N)=O)NC(=O)[C@@H]3CCCN3C1=O)C(=O)CSC[C@H](NC(=O)[C@H](C)N)C(=O)N[C@@H](CC(=O)O)C(=O)N[C@@H](C)C(=O)N[C@@H](CC(=O)O)C(=O)N[C@@H](Cc1cccc3ccccc13)C(=O)N2 [BCY12258] (I: H-ACDAD[1Nal]CDVPSLPCAK-NH2 / II: H-ACDAD[1Nal]CDVPSLPCAK-NH2; linker I:2-I:7-I:14, II:2-II:7-II:14 via X1; linker I:16-II:16 via X2) | > 97.7 nM | 57% | – | 0.409 nM
